BindingDB's records for doi:10.7270/Q2TX3CTT (Broad Institute, 2010)
Where a name gives a salt, the structure may show the parent alone.

Molecular target: Glycogen synthase kinase-3 beta (Homo sapiens, UniProt P49841)
Experiment: GSK3beta kinase inhibitor potency, dose response, biochemical, luminescence, cell-free homogeneous, retest (AID 434954)

Chain of Glycogen synthase kinase-3 beta (P49841 whole entry): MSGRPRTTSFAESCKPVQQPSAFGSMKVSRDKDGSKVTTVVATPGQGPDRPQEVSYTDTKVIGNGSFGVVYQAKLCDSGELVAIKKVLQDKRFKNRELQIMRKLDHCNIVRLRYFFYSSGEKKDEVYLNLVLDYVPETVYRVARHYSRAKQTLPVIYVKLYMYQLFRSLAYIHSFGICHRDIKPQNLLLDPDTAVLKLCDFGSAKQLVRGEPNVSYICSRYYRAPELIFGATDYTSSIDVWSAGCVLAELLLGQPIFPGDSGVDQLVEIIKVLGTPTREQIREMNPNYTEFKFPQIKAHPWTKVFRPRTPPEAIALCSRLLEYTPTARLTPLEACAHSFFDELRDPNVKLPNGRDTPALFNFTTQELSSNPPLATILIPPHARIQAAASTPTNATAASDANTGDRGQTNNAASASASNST

CC(C(=O)NCc1ccco1)n1cc([N+](=O)[O-])cn1 (stereo not given) [N-(2-furylmethyl)-2-(4-nitro-1H-pyrazol-1-yl)propanamide]
EC50: > 300 µM

COCCNc1nc(SC)nc2sc3c(c12)CCN(C)C3 [N-(2-methoxyethyl)-7-methyl-2-methylsulfanyl-6,8-dihydro-5H-pyrido[4,5]thieno[1,2-c]pyrimidin-4-amine]
EC50: 198 µM

CC1CCCCC1NC(=O)CN(C)S(=O)(=O)c1cccc2cccnc12 (stereo not given) [N-(2-methylcyclohexyl)-2-[methyl(quinolin-8-ylsulfonyl)amino]acetamide]
EC50: > 300 µM

O=C(Nc1ccccn1)Nc1ccccc1[N+](=O)[O-] [N-(2-nitrophenyl)-N'-pyridin-2-ylurea]
EC50: > 300 µM

O=C(NCCc1nnc2ccc(NCC3CCCO3)nn12)c1ccccc1 (stereo not given) [N-(2-{6-[(tetrahydrofuran-2-ylmethyl)amino][1,2,4]triazolo[4,3-b]pyridazin-3-yl}ethyl)benzamide]
EC50: > 300 µM

COc1ccc(NC(=O)Nc2ccccn2)cc1OC [N-(3,4-dimethoxyphenyl)-N'-2-pyridinylurea]
EC50: > 300 µM

C=CCN(c1ccc(C(=O)Nc2ccc(C)c(C)c2)cc1)S(C)(=O)=O [N-(3,4-dimethylphenyl)-4-[methylsulfonyl(prop-2-enyl)amino]benzamide]
EC50: > 300 µM

O=C(CC1NCCNC1=O)Nc1cc(Cl)cc(Cl)c1 (stereo not given) [N-(3,5-dichlorophenyl)-2-(3-oxopiperazin-2-yl)acetamide]
EC50: > 300 µM

Cc1ccc(NC(=O)Nc2cc(-c3ccccc3)nn2C)cc1Cl [N-(3-chloro-4-methylphenyl)-N'-(1-methyl-3-phenyl-1H-pyrazol-5-yl)urea]
EC50: > 300 µM

CCCN(C(=O)CCNC(=O)Cn1cnc2ccccc2c1=O)c1cccc(Cl)c1 [N-(3-chlorophenyl)-3-[[2-(4-oxoquinazolin-3-yl)acetyl]amino]-N-propylpropanamide]
EC50: > 300 µM

Cc1cccc(OCc2nnc(SCC(=O)Nc3sc(C)c(C)c3C#N)n2C)c1 [N-(3-cyano-4,5-dimethylthiophen-2-yl)-2-[[4-methyl-5-[(3-methylphenoxy)methyl]-1,2,4-triazol-3-yl]sulfanyl]acetamide]
EC50: > 300 µM

Cc1ccc(NC(=O)CSc2nccn2C)cc1F [N-(3-fluoro-4-methylphenyl)-2-[(1-methyl-2-imidazolyl)thio]acetamide]
EC50: > 300 µM

O=C(CCc1nnc(CCCCc2ccccc2)o1)NCc1cccc(F)c1 [N-(3-fluorobenzyl)-3-[5-(4-phenylbutyl)-1,3,4-oxadiazol-2-yl]propanamide]
EC50: > 300 µM

Cc1nc(NCCCn2ccnc2)c2ccccc2n1 [N-(3-imidazol-1-ylpropyl)-2-methyl-quinazolin-4-amine;hydrochloride]
EC50: > 300 µM

COCCCNC(=O)c1cccn2c(=O)c3cc4ccccc4cc3nc12 [N-(3-methoxypropyl)-12-oxidanylidene-12H-benzo[g]pyrido[2,1-b]quinazoline-4-carboxamide]
EC50: 0.531 µM

O=C(CN(Cc1ccc(F)cc1)C(=O)CCC(=O)Nc1ccccn1)NCc1ccc(F)cc1 [N-(4-Fluoro-benzyl)-N-[(4-fluoro-benzylcarbamoyl)-methyl]-N'-pyridin-2-yl-succinamide]
EC50: 37.7 µM

CCn1c(SCC(=O)Nc2ccc(NC(C)=O)cc2)nnc1C1CC1 [N-(4-acetamidophenyl)-2-[(5-cyclopropyl-4-ethyl-1,2,4-triazol-3-yl)sulfanyl]ethanamide]
EC50: > 300 µM

COc1cccc(-c2ccc3nnc(SCC(=O)Nc4ccc(NC(C)=O)cc4)n3n2)c1 [N-(4-acetamidophenyl)-2-[[6-(3-methoxyphenyl)-[1,2,4]triazolo[4,3-b]pyridazin-3-yl]sulfanyl]ethanamide]
EC50: > 300 µM

CC(=O)c1ccc(NC(=O)CN2C(=O)CCC2=O)cc1 [N-(4-acetylphenyl)-2-(2,5-dioxo-1-pyrrolidinyl)acetamide]
EC50: > 300 µM

CCn1c(SCC(=O)Nc2ccc(C(C)=O)cc2)nnc1C1CC1 [N-(4-acetylphenyl)-2-[(5-cyclopropyl-4-ethyl-1,2,4-triazol-3-yl)sulfanyl]acetamide]
EC50: > 300 µM
